Assays:
[1] = tested on: Paracoccus sp. strain Y-1071; assay: Glutamate supplementation, test tube culture (Pharmamedia medium), carotenoid by HPLC; format: cell-based
Experimental: (§1) In the examples, carotenoids were quantified by high performance liquid chromatography (HPLC) as follows.
(§2) Two columns of Wakosil-II 5 SIL-100 (φ4.6×250 mm) (Wako Pure Chemical Industries, Ltd., Japan) were connected to each other for use as a column. Elution was performed by flowing an n-hexane-tetrahydrofuran-methanol mixed solution (40:20:1), which was a mobile phase, at a flow rate of 1.0 mL/minute at a constant temperature around room temperature. The measurement was performed as follows. Samples were each dissolved in tetrahydrofuran and then diluted 100-fold with the mobile phase. Each dilution was injected in a volume of 20 μL. The column eluate was detected at a wavelength of 470 nm. As a reference for quantification, astaxanthin (SIGMA, Cat. No. A9335) was used. The astaxanthin concentration of the reference solution was determined using the following equation after measuring the absorbance (A) of the reference solution at 477 nm and the area percentage % (B) of the astaxanthin peak at the time of HPLC analysis under the above conditions.
Next, a medium of the following composition (sucrose 30 g/L, Pharmamedia 20 g/L, ammonium sulfate 1.5 g/L, potassium dihydrogenphosphate 1.5 g/L, disodium hydrogenphosphate 12-hydrate 3.8 g/L, calcium chloride dihydrate 0.1 g/L, magnesium sulfate 7-hydrate 4.5 g/L, iron sulfate 7-hydrate 5 g/L, biotin 1 mg/L, silicon-based defoaming agent 1 g/L) was dispensed in 8 ml volumes into cotton-plugged test tubes having an inner diameter of 18 mm (2 tubes in total). One of the tubes was supplemented with monosodium L-glutamate monohydrate to 30 mmol/L, while the other was supplemented with nothing as a control.
The resulting culture solution was then inoculated in 0.1 ml volumes into the two test tube media and cultured with shaking at 28° C. for 4 days at 300 spm.
Each culture solution was measured for its carotenoid concentration by HPLC.

[2] = tested on: Paracoccus carotinifaciens strain E-396 (FERM BP-4283); assay: Amino acid supplementation (20 amino acids), test tube culture, carotenoid by HPLC and growth by OD610; format: cell-based; conditions: amino acid at 1.0 g/L
Experimental: as §1
as §2, with “conditions. Astaxanthin concentration (mg/L)=A/2150×B×100” for “conditions.”
A medium of the following composition (sucrose 30 g/L, corn steep liquor 30 g/L, potassium dihydrogenphosphate 1.5 g/L, disodium hydrogenphosphate 12-hydrate 3.8 g/L, calcium chloride dihydrate 5.0 g/L, magnesium sulfate 7-hydrate 0.7 g/L, iron sulfate 7-hydrate 0.3 g/L, pH 7.2) was dispensed in 8 ml volumes into cotton-plugged test tubes having an inner diameter of 18 mm and sterilized in an autoclave at 121° C. for 15 minutes to prepare a test tube medium for seed culture.
Next, a medium of the following composition (glucose 30 g/L, filtered corn steep liquor 5 g/L, ammonium sulfate 1.5 g/L, potassium dihydrogenphosphate 1.5 g/L, disodium hydrogenphosphate 12-hydrate 3.8 g/L, calcium chloride dihydrate 5.0 g/L, magnesium sulfate 7-hydrate 0.7 g/L, iron sulfate 7-hydrate 0.6 g/L, ester-based defoaming agent 0.2 g/L) was dispensed in 8 ml volumes into cotton-plugged test tubes having an inner diameter of 18 mm (21 tubes in total).
The mediums in these test tubes were supplemented with 20 amino acids, glycine, alanine, valine, leucine, isoleucine, serine, threonine, aspartic acid, glutamic acid, asparagine, glutamine, lysine, arginine, cysteine, methionine, phenylalanine, tyrosine, tryptophan, histidine and proline, respectively, at 1.0 g/L. One of the tubes was supplemented with no amino acid as a control. Finally, the mediums in the tubes were adjusted to pH 7.1 with aqueous sodium hydroxide or aqueous sulfuric acid and then sterilized in an autoclave at 121° C. for 20 minutes.
Paracoccus carotinifaciens strain E-396 (FERM BP-4283) was inoculated into the test tube medium for seed culture and then cultured with shaking at 28° C. for 2 days at 300 spm. The resulting culture solution was then inoculated in 0.1 ml volumes into the 21 test tube media, respectively, and cultured with shaking at 28° C. for 4 days at 300 spm.
Each culture solution was measured for its carotenoid concentration by HPLC and microbial cell growth was determined by OD610 (absorbance at 610 nm).

[3] = Glutamic acid concentration 30 mmol/L, 28° C. for 4 days
[4] = culture solution, 28° C. for 4 days

For N[C@@H](CCC(=O)O)C(=O)O [Glutamic acid, glutamic acid], the “produced carotenoid concentration compared to the sample without glutamic acid” value ([1]; 30 mmol/L) was “higher produced carotenoid concentration”, the 3-Hydroxyechinenone [1, 3] was 0.7 mg/L and the Adonixanthin [1, 3] was 18.4 mg/L. The Astaxanthin [1, 3] was 94.8 mg/L, the Asteroidenone [1, 3] was 1.5 mg/L and the Canthaxanthin [1, 3] was 10.0 mg/L. The Echinenone [1, 3] was 6.5 mg/L, the Phoenicoxanthin [1, 3] was 24.8 mg/L and the “Total carotenoid” value [1, 3] was 170.2 mg/L. It also gave a Zeaxanthin [1, 3] of 0.28 mg/L, a β-Carotene [1, 3] of 13.1 mg/L and a β-Cryptoxanthin [1, 3] of 0.10 mg/L. For the same compound, the “effect on the production of carotenoid pigments” value ([2]; versus tube with no amino acid) was “stimulatory effect”, the Astaxanthin [2, 4] was 10.7 mg/L and the Total carotenoid [2, 4] was 28.2 mg/L. For the same compound, the OD610 ([2]; microbial cell growth, absorbance at 610 nm, 28° C. for 4 days) was 17.

Reference: US8993282B2, “Carotenoid fermentation method” (JX Nippon Oil & Energy Corporation, priority 2008, dated 2015)
